34 compounds from patent publication US20260098030A1, “NEGATIVE ALLOSTERIC MODULATORS OF METABOTROPIC GLUTAMATE RECEPTOR 2” (Vanderbilt University, priority 2022, published 2026) can be followed below.

Bounds are passed on as bounds.

T1 sequence (P31421 19-872): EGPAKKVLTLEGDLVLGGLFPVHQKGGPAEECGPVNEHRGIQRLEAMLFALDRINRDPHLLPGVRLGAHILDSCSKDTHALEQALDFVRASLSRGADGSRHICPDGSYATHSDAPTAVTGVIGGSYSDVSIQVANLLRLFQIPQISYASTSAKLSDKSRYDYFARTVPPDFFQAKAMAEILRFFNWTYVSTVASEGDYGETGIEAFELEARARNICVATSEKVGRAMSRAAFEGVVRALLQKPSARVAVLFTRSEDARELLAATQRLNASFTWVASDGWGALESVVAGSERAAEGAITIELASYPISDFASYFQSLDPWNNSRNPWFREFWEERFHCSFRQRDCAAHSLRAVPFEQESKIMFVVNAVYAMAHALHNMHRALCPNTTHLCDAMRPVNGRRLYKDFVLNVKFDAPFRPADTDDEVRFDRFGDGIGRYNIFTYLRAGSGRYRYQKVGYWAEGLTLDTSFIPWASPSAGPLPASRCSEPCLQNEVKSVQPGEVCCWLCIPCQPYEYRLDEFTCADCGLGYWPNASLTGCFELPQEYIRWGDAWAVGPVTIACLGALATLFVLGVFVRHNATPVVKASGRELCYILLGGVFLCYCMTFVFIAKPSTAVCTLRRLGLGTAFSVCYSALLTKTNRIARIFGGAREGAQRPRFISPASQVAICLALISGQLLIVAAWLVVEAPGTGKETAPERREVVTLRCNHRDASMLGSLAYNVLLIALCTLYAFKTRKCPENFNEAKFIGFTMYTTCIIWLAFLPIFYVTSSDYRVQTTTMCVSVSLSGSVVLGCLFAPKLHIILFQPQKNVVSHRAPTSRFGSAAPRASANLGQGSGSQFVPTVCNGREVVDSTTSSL

This assay concerns the target T1, rat mGlu2 (Rattus norvegicus, UniProt P31421).
T1 construct: expressed in transfected cells; host or cells: HEK-293 cells stably co-expressing GIRK channels
Briefly: mGlu GIRK cell-based thallium flux assay, rat mGlu2. The note with it: HEK-293 cells co-expressing rat mGlu2 and GIRK, EC80 glutamate. The method, then: Human embryonic kidney (HEK-293) cell lines stably co-expressing human or rat mGlu2 and G protein-coupled inwardly rectifying potassium (GIRK) channels, or human mGlu3 and GIRK, were used for in vitro evaluation of compound activity in thallium flux assay using a fluorescent thallium indicator dye.
The day before the assay, GIRK cells co-expressing human mGlu3, human or rat mGlu2, as described above, were plated in black-walled, clear-bottomed, amine-coated 384-well plates at a density of 15,000 cells/20 μL/well in the assay medium (glutamine-depleted basal DMEM supplemented with 10% dialyzed FBS, 20 mM HEPES, 1 mM sodium pyruvate). Cells were incubated at 37° C. in the presence of 5% CO2. The next day, assay buffer (Hanks balanced salt solution, 20 mM HEPES, 4.16 mM sodium bicarbonate, pH 7.2) was prepared to dilute compounds and Thallos AM fluorescent dye solution. The 2× Thallos dye solution (final concentration 0.34 μM to the cells) was prepared by mixing the dye stock (2.97 mM in DMSO) to 1:1 with 10% pluronic acid before adding to the assay buffer. Cells were washed with assay buffer using a microplate washer to remove the medium, resulting in 20 μL of buffer remaining in each well. Immediately, 20 μL of 2× Thallos dye solution was added to cells, and incubated for one hour at 25° C. During the cell dye loading incubation period, a 10-point concentration serial dilution of compound was created from a 10 mM DMSO compound stock by performing a 1:3 serial dilution in DMSO using the Bravo liquid handler. The 2× compound plate was generated by transferring 0.24 μL of the diluted compound in each well to a daughter plate using an Echo acoustic liquid handler. This is further diluted in 40 μL assay buffer, resulting in a range from 30 μM to 1.5 nM final concentration in the assay. The agonist plate (5×) was prepared to include EC80 glutamate concentration (a concentration to elicit 80% of a maximally effective glutamate concentration) in thallium buffer (125 mM […], 1 mM magnesium sulfate, 1.8 mM calcium sulfate, 5 mM glucose, 10 mM HEPES, pH 7.2, 12.5 mM thallium sulfate).
After dye-loading, cell plates were washed with assay buffer to remove excess extracellular dye using a microplate washer, resulting in 20 μL of buffer remaining in each well. After a ten-minute equilibration period, cell, compound and agonist plates were loaded into a Hamamatsu μCell kinetic imaging plate reader equipped with liquid handler to monitor fluorescence changes at 480 nm excitation and 540 nm emission settings. Briefly, after collection of baseline fluorescence, 20 μL of compound was added and incubated for two minutes and twenty seconds. This is immediately followed by adding 10 μL of glutamate-thallium buffer to the wells containing compound. The fluorescent signal was monitored an additional 2.5 minutes after the glutamate addition. Multiple reference wells containing no compound received either no glutamate (for a baseline reference), EC80 glutamate, or ECmax glutamate (for normalization to maximum response). Fluorescence was measured throughout the experiment at a frequency of 1 measurement per every 2 seconds before the glutamate addition and a frequency of 1 measurement per every 1 second after the glutamate addition. Each compound concentration series occurred one time in each plate, and replicates from two or three plates were used in each experimental run. Thallium solutions were handled and disposed of according to guidelines from the Vanderbilt University Chemical Safety department.
Data were normalized using a static ratio function (F/F0) by dividing every fluorescent measurement by the initial fluorescent value for the corresponding well. The increase in signal resulting from the glutamate/thallium addition of the second add was measured by determining the slope from 3 seconds to 13 seconds after the addition. […]
As a reminder, the IC50 is the concentration that inhibits the measured activity by half. Higher therefore signals a need for much substance. With `Cc1ccc(-c2cc3c(cc2-c2ccc(F)cc2)C(=O)NC3)c(C)n1` [Compound 29, 5-(2,6-dimethylpyridin-3-yl)-6-(4-fluorophenyl)isoindolin-1-one], the IC50 was found to be 3.6 µM.
`Cc1nc(F)ccc1-c1cc2c(cc1-c1ccc(F)cc1)C(=O)NC2` [Compound 30, 5-(6-fluoro-2-methylpyridin-3-yl)-6-(4-fluorophenyl)isoindolin-1-one] showed an IC50 greater than 10 µM.
Regarding `O=C1NCc2cc(-c3ccc(F)nc3F)c(-c3ccc(F)cc3)cc21` [Compound 32, 5-(2,6-difluoropyridin-3-yl)-6-(4-fluorophenyl)isoindolin-1-one], the IC50 is greater than 10 µM.
For the compound `N#Cc1ccc(-c2cc3c(cc2-c2ccc(F)cc2)C(=O)NC3)cn1` [Compound 33, 5-(6-(4-fluorophenyl)-1-oxoisoindolin-5-yl)picolinonitrile], the IC50 is greater than 10 µM.
To `CN(C)c1ccc(-c2cc3c(cc2-c2ccc(F)cc2)C(=O)NC3)cn1` [Compound 34, 5-(6-(dimethylamino)pyridin-3-yl)-6-(4-fluorophenyl)isoindolin-1-one] belongs greater than 10 µM.
Compound `Cn1ccc(-c2cc3c(cc2-c2ccc(F)cc2)C(=O)NC3)n1` [Compound 35, 6-(4-fluorophenyl)-5-(1-methyl-1H-pyrazol-3-yl)isoindolin-1-one] returned an IC50 of 1.03 µM.
The compound `CC(=O)Nc1ccc(-c2cc3c(cc2-c2ccc(F)cc2)C(=O)NC3)cn1` [Compound 36, N-(5-(6-(4-fluorophenyl)-1-oxoisoindolin-5-yl)pyridin-2-yl)acetamide] had an IC50 greater than 10 µM.
To `Cc1cc(F)ncc1-c1cc2c(cc1-c1ccc(F)cc1)C(=O)NC2` [Compound 37, 5-(6-fluoro-4-methylpyridin-3-yl)-6-(4-fluorophenyl)isoindolin-1-one] belongs greater than 10 µM; to `O=C1NCc2cc(-c3cnc4[nH]ccc4c3)c(-c3ccc(F)cc3)cc21` [Compound 38, 6-(4-fluorophenyl)-5-(1H-pyrrolo[2,3-b]pyridin-5-yl)isoindolin-1-one], 1.96 µM.
To `CN(C)c1ncccc1-c1cc2c(cc1-c1ccc(F)cc1)C(=O)NC2` [Compound 39, 5-(2-(dimethylamino)pyridin-3-yl)-6-(4-fluorophenyl)isoindolin-1-one] belongs greater than 10 µM; to `O=C1NCc2cc(-c3cccnc3F)c(-c3ccc(F)cc3)cc21` [Compound 40, 6-(4-fluorophenyl)-5-(2-fluoropyridin-3-yl)isoindolin-1-one], greater than 10 µM; to `Cc1ncccc1-c1cc2c(cc1-c1ccc(F)cc1)C(=O)NC2` [Compound 41, 6-(4-fluorophenyl)-5-(2-methylpyridin-3-yl)isoindolin-1-one], greater than 10 µM.
To `CC(C)c1ncccc1-c1cc2c(cc1-c1ccc(F)cc1)C(=O)NC2` [Compound 42, 6-(4-fluorophenyl)-5-(2-isopropylpyridin-3-yl)isoindolin-1-one] belongs 7.55 µM; to `O=C1NCc2cc(-c3cccnc3C3CC3)c(-c3ccc(F)cc3)cc21` [Compound 43, 5-(2-cyclopropylpyridin-3-yl)-6-(4-fluorophenyl)isoindolin-1-one], greater than 10 µM.
The compound `O=C1NCc2cc(-c3cccnc3)c(-c3ccc(F)cc3)cc21` [Compound 44, 6-(4-fluorophenyl)-5-(pyridin-3-yl)isoindolin-1-one] showed an IC50 greater than 10 µM.
With `O=C1NCc2cc(-c3ccccn3)c(-c3ccc(F)cc3)cc21` [Compound 45, 6-(4-fluorophenyl)-5-(pyridin-2-yl)isoindolin-1-one], the IC50 was greater than 10 µM.
For `Cc1n[nH]c2ccc(-c3cc4c(cc3-c3ccc(F)cc3)C(=O)NC4)cc12` [Compound 47, 6-(4-fluorophenyl)-5-(3-methyl-1H-indazol-5-yl)isoindolin-1-one], the IC50 is greater than 10 µM.
In the case of `Cc1ccncc1-c1cc2c(cc1-c1ccc(F)cc1)C(=O)NC2` [Compound 48, 6-(4-fluorophenyl)-5-(4-methylpyridin-3-yl)isoindolin-1-one], the IC50 was greater than 10 µM.
Compound `O=C1NCc2cc(-c3ccc4[nH]ccc4c3)c(-c3ccc(F)cc3)cc21` [Compound 49, 6-(4-fluorophenyl)-5-(1H-indol-5-yl)isoindolin-1-one] came in with an IC50 greater than 10 µM.
For `CC(C)(O)c1ccc(-c2cc3c(cc2-c2ccc(F)cc2)C(=O)NC3)cn1` [Compound 50, 6-(4-fluorophenyl)-5-(6-(2-hydroxypropan-2-yl)pyridin-3-yl)isoindolin-1-one] the value was greater than 10 µM; for `Cc1c(-c2cc3c(cc2-c2ccc(F)cc2)C(=O)NC3)cc(C#N)n1C` [Compound 53, 4-(6-(4-fluorophenyl)-1-oxoisoindolin-5-yl)-1,5-dimethyl-1H-pyrrole-2-carbonitrile], greater than 10 µM; for `COC1CC=C(c2cc3c(cc2-c2ccc(F)cc2)C(=O)NC3)CC1` (stereo not shown) [Compound 54, 6-(4-fluorophenyl)-5-(4-methoxycyclohex-1-en-1-yl)isoindolin-1-one], greater than 10 µM.
In turn, `O=C1NCc2cc(C3=CCOCC3)c(-c3ccc(F)cc3)cc21` [Compound 55, 5-(3,6-dihydro-2H-pyran-4-yl)-6-(4-fluorophenyl)isoindolin-1-one] registered an IC50 greater than 10 µM.
For `O=C1NCc2cc(C3=CCN(Cc4ccccc4)CC3)c(-c3ccc(F)cc3)cc21` [Compound 56, 5-(1-benzyl-1,2,3,6-tetrahydropyridin-4-yl)-6-(4-fluorophenyl)isoindolin-1-one] the value was greater than 10 µM.
To `CN1CCC=C(c2cc3c(cc2-c2ccc(F)cc2)C(=O)NC3)C1` [Compound 57, 6-(4-fluorophenyl)-5-(1-methyl-1,2,5,6-tetrahydropyridin-3-yl)isoindolin-1-one] belongs greater than 10 µM.
To `CN1CC=C(c2cc3c(cc2-c2ccc(F)cc2)C(=O)NC3)CC1` [Compound 58, 6-(4-fluorophenyl)-5-(1-methyl-1,2,3,6-tetrahydropyridin-4-yl)isoindolin-1-one] belongs greater than 10 µM; to `CC1(C)C=C(c2cc3c(cc2-c2ccc(F)cc2)C(=O)NC3)CC(C)(C)N1` [Compound 59, 6-(4-fluorophenyl)-5-(2,2,6,6-tetramethyl-1,2,3,6-tetrahydropyridin-4-yl)isoindolin-1-one], greater than 10 µM; to `O=C1NCc2cc(C3=CCNCC3)c(-c3ccc(F)cc3)cc21` [Compound 60, 6-(4-fluorophenyl)-5-(1,2,3,6-tetrahydropyridin-4-yl)isoindolin-1-one], greater than 10 µM.
The compound `O=C1NCc2cc(C3=CCCNC3)c(-c3ccc(F)cc3)cc21` [Compound 61, 6-(4-fluorophenyl)-5-(1,2,5,6-tetrahydropyridin-3-yl)isoindolin-1-one] returned a half-inhibitory concentration (IC50) greater than 10 µM.
To `CC1C=C(c2cc3c(cc2-c2ccc(F)cc2)C(=O)NC3)CC(C)N1` (stereo not shown) [Compound 62, 5-(2,6-dimethyl-1,2,3,6-tetrahydropyridin-4-yl)-6-(4-fluorophenyl)isoindolin-1-one] belongs greater than 10 µM; to `O=C1NCc2cc(C3CCCCC3)c(-c3ccc(F)cc3)cc21` [Compound 63, 5-cyclohexyl-6-(4-fluorophenyl)isoindolin-1-one], 2.62 µM.
Take `CN1CCCC(c2cc3c(cc2-c2ccc(F)cc2)C(=O)NC3)C1` (stereo not shown) [Compound 65, 6-(4-fluorophenyl)-5-(1-methylpiperidin-3-yl)isoindolin-1-one]: the IC50 was greater than 10 µM.
To `CN1CCC(c2cc3c(cc2-c2ccc(F)cc2)C(=O)NC3)CC1` [Compound 66, 6-(4-fluorophenyl)-5-(1-methylpiperidin-4-yl)isoindolin-1-one] belongs greater than 10 µM.
For `O=C1NCc2cc(C3CCNCC3)c(-c3ccc(F)cc3)cc21` [Compound 67, 6-(4-fluorophenyl)-5-(piperidin-4-yl)isoindolin-1-one] the value was greater than 10 µM.
